Activity calls are given as the source filed them.
Columns and labels:
BJ [1] = experiment: BJ-TERT fibroblast viability loss – cell-based, RAS-independent, luminescence, dose response (AID 1933); format: functional; settings: Homo sapiens
BJ [2] = experiment: cells; format: functional, cell-based; settings: Homo sapiens
BJ [3] = experiment: BJ-TERT-LT-ST fibroblast viability loss – cell-based, RAS-independent, luminescence, dose response (AID 1935); format: functional; settings: Homo sapiens;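 also: BJ fibroblasts immortalized with TERT plus LT and ST oncogenes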
[4] = DRD fibroblast viability loss – cell-based, non-viral oncogenic, luminescence, dose response (AID 1934); format: functional; settings: Homo sapiens
[5] = viability loss in Vero cells – cytotoxicity control for Vif-APOBEC3G degradation inhibitor project, dose response (AID 1117358); format: functional; settings: Vero
[6] = Luminescence-based cell-based high throughput dose response assay to identify activators of the DAF-12 from the parasite S. stercoralis (ssDAF-12).; format: functional
[7] = biological target: T1, Oxysterols receptor LXR-beta (Homo sapiens, UniProt P55055); experiment: LXR agonists, Gal4 luciferase reporter, dose response, counter-screen for ssDAF-12 agonist project, cell-based, luminescence, HEK293, S. stercoralis campaign (AID 720737); format: functional; settings: read-out: IC50 (the source's name)
T1 sequence (P55055 whole entry): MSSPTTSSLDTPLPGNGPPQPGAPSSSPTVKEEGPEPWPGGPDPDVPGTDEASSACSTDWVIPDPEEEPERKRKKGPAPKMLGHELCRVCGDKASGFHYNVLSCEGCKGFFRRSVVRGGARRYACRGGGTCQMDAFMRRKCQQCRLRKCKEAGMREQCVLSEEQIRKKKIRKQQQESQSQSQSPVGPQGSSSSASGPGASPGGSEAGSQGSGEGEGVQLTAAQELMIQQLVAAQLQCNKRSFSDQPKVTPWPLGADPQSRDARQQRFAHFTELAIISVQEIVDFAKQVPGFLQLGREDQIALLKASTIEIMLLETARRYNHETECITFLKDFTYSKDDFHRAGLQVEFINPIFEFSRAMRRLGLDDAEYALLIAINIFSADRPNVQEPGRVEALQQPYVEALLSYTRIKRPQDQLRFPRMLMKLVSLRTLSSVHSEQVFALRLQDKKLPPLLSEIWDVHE

Nonstructural protein 1 = Nonstructural protein 1 (Influenza A virus, UniProt Q194T2); format: functional, Influenza A virus (A/California/07/2009(H1N1))
Protein Tat = biological target: T2, Protein Tat (Human immunodeficiency virus type 1 group M subtype B (isolate HXB2)(HIV-1), UniProt P04608); format: functional;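 also: tat binding to TAR RNA read out by fluorescence polarization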
T2 sequence (P04608 whole entry): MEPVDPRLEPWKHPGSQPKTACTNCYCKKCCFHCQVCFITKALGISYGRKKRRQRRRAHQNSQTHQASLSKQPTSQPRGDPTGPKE

cells = format: functional
[8] = A549 cell cytotoxicity, dose response, cytotoxicity control, plate reader, cherry-pick, antagonist series (AID 743412); format: functional, cell-based
[9] = blockers of bursicon-stimulated LGR2 cAMP reporter – cell-based, HEK293, CRE-luciferase reporter, cherry pick, set 2, dose response (AID 743343); format: functional;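 also: transfected cells were stimulated with diluted bursicon conditioned medium after compound addition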
[10] = blockade of melanocortin 4 receptor signaling – cell-based, plate reader, cherry pick, counter-screen for LGR2 antagonist project, dose response (AID 743444); format: functional;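 also: transfected HEK 293 cells stimulated with alpha-MSH peptide; potency of inhibitors of the alpha-MSH evoked signal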
[11] = viability loss in HEK293 cells – cell-based, plate reader, cherry-picked samples, cytotoxicity control, dose response (AID 743446); format: functional
[12] = growth inhibition of yeast DHODH-expressing 3D7 parasites – SYBR Green, dry powder samples, dose response (AID 1159570); format: functional, cell-based;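 also: parasite growth measured after 72 hours of compound exposure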
[13] = P. falciparum Dd2 growth inhibitors, dose response, SYBR Green, cherry-picked samples (AID 1159567); format: functional, cell-based
[14] = Dd2 malaria parasite growth inhibition potency – SYBR Green, dry powder samples, dose response (AID 1159566); format: functional, cell-based;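 also: potency for growth inhibition with lower SYBR green DNA signal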
[15] = growth inhibition of PfATP4-mutant resistant parasites – NITD609-resistant line, SYBR Green, dry powder, dose response (AID 1159571); format: functional, cell-based;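 also: parasites synchronized at ring stage by sorbitol before testing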
[16] = biological target: T3, DNA repair and recombination protein RAD54-like (Homo sapiens, UniProt Q92698); experiment: RAD54 Holliday junction migration blockers – biochemical, fluorescence, cherry-picked samples, dose series, confirmation (AID 651657); format: functional
T3 sequence (Q92698 whole entry): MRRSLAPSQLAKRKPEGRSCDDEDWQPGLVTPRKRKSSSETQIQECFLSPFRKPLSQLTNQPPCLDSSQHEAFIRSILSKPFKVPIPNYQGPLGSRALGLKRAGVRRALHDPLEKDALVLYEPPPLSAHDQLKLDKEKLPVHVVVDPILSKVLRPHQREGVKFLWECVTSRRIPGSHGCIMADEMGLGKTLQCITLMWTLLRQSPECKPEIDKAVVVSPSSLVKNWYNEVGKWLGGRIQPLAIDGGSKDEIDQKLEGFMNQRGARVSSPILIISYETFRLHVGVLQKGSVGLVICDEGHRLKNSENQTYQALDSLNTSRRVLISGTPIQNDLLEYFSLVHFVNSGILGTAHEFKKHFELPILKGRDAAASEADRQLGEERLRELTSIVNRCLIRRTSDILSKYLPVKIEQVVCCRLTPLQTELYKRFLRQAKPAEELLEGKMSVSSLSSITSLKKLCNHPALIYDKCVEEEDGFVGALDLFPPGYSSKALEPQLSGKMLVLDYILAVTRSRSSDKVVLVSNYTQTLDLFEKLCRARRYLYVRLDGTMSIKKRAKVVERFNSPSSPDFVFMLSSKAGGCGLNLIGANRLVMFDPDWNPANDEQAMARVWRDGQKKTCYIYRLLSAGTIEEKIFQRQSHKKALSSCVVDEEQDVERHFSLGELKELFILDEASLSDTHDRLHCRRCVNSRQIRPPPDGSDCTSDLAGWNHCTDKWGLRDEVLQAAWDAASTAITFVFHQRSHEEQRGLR

[17] = biological target: T4, Histone-lysine N-methyltransferase NSD2 (Homo sapiens, UniProt O96028); format: biochemical
T4 sequence (O96028 whole entry): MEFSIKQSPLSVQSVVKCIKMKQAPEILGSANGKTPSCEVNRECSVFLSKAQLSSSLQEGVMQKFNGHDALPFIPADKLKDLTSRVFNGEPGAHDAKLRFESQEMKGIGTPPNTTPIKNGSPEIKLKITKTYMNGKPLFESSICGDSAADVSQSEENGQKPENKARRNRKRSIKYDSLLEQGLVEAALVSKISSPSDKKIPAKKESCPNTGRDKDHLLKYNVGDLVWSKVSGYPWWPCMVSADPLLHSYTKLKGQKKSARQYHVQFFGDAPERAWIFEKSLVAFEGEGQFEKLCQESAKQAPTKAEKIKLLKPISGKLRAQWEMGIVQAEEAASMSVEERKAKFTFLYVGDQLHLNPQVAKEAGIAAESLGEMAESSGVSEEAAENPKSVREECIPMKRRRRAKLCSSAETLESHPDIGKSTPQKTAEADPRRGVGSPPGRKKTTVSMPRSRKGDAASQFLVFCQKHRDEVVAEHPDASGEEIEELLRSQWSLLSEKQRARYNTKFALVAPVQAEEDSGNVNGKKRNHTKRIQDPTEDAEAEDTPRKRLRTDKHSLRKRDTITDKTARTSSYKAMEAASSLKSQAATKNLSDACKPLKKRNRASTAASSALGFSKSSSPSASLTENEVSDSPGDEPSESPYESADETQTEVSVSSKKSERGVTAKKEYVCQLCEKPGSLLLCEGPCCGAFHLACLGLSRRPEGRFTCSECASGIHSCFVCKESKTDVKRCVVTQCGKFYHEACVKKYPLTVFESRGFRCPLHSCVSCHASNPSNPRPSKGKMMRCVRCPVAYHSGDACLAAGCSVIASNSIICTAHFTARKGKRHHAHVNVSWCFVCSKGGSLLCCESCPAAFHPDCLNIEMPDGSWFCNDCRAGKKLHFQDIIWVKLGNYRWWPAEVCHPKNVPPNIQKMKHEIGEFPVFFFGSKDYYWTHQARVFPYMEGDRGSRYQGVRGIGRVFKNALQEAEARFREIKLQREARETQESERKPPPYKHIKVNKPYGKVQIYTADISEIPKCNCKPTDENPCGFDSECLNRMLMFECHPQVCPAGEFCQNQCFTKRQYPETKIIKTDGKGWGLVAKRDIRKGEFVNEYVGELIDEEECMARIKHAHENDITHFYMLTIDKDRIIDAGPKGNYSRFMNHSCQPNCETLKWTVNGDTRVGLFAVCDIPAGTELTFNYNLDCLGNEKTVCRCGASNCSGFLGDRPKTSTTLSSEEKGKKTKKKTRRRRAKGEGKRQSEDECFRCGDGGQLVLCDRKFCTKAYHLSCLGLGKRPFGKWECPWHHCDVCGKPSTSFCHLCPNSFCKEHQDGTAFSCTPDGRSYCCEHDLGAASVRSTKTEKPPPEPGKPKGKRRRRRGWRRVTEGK

Paired box protein Pax-8 = Paired box protein Pax-8 (Homo sapiens, UniProt Q06710); experiment: PAX8 transcriptional activity inhibition in RMG-I – RMG-I cells, luciferase, cherry-pick, dose response (AID 687027); format: functional, cell-based;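 also: luciferase reporter driven by Pax8 target thyroperoxidase promoter measured by SteadyGlo luminescence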
[18] = OVCAR-3 cell viability loss – plate reader, dry powder samples, PAX8 inhibitor project, dose response (AID 743044); format: functional, cell-based
[19] = general cell-killing toxicity readout – plate reader, dry powder samples, cytotoxicity control for PAX8 inhibitor project, dose response (AID 743021); format: functional, cell-based
Kallikrein-7 = Kallikrein-7 (Homo sapiens, UniProt P49862); experiment: Fluorescence Intensity-based biochemical primary high throughput dose response assay to identify activators of kallikrein-7 (K7) zymogen.
[20] = toxicity toward HepG2 liver cells – cell-based, plate reader, cherry-pick, antagonist series, cytotoxicity control, dose response (AID 743416); format: functional
[21] = biological target: T5, Mannose-6-phosphate isomerase (Homo sapiens, UniProt P34949); experiment: MPI inhibition at elevated mannose 6-phosphate – biochemical, fluorescence intensity, high mannose 6-phosphate, primary screen (AID 1220)
T5 sequence (P34949 whole entry): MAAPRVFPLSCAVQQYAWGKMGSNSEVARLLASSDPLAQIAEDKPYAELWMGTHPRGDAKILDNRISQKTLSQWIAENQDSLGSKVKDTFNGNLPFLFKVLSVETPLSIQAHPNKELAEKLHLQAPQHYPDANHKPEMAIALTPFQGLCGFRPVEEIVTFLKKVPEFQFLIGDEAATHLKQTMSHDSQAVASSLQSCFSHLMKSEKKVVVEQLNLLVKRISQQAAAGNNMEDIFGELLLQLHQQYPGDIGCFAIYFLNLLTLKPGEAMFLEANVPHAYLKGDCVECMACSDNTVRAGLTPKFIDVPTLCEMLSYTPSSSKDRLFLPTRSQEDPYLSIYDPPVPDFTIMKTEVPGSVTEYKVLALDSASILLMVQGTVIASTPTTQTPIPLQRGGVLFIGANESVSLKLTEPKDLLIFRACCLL

Kallikrein-7, sequence (P49862 whole entry): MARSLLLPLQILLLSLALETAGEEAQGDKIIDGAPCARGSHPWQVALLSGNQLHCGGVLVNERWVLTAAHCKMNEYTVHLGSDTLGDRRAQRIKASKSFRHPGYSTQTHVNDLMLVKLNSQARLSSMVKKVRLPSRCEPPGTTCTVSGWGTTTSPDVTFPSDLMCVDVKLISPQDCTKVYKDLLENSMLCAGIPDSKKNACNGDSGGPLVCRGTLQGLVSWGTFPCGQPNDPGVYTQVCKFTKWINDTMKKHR
Paired box protein Pax-8, sequence (Q06710 whole entry): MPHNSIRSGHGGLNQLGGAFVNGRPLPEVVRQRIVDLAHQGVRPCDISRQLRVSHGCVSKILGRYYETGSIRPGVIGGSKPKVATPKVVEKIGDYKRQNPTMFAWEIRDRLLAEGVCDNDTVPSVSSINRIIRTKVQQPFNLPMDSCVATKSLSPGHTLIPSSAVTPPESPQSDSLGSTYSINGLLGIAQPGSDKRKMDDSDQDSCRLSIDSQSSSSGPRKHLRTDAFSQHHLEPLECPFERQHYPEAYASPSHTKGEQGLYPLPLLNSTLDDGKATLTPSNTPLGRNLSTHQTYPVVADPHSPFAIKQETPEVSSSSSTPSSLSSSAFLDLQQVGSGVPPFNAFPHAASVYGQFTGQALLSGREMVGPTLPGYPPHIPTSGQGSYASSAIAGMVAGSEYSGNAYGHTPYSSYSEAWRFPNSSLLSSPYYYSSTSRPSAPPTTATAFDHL
Nonstructural protein 1, sequence (Q194T2 whole entry): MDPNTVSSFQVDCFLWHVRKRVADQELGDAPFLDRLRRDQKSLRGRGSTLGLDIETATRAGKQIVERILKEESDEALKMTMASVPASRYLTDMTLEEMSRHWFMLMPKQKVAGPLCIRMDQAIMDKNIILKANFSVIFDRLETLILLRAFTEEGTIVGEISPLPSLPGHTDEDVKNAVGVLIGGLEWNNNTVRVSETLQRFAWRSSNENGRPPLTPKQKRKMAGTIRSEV

O=C(/C=C/c1cccs1)Nc1ccc(Br)cn1
EC50 (BJ [1]): 0.417 µM (inconclusive) | EC50 (BJ [2]): 25.5 µM (inconclusive) | EC50 (BJ [3]): 10.2 µM (inconclusive) | EC50 [4]: 0.373 µM (inconclusive) | CC50 [5]: > 40 µM (active)

CCCCCCC1(C)N=C(S)N(c2ccccc2)N1 (centres undefined)
IC50 [6]: > 67.6 µM (inactive) | EC50 [7]: > 67.6 µM (inactive)

O=C1CC(Nc2ccc(N3CCOCC3)cc2)C(=O)N1c1cccc(C(F)(F)F)c1 (centres undefined)
IC50 (Nonstructural protein 1): > 100 µM (active) | IC50 (Protein Tat): 29.5 µM (inconclusive)

CC(C)CN(C(=O)CN1CCN(c2ccc(O)cc2)CC1)c1c(N)n(CC(C)C)c(=O)[nH]c1=O
IC50 (Protein Tat): > 100 µM (active)

O=C(COc1ccc2c(c1)CCC2)Nc1ccccn1
IC50 (cells): 39.2 µM (active) | AC50 [8]: 45.3 µM (active) | AC50 [9]: 7.18 µM (active) | AC50 [10]: 6.74 µM (active) | AC50 [11]: 33.3 µM (active)

COc1ccc2c3c(n(C)c2c1)[C@@H](CO)N(C(=O)Nc1ccc(F)cc1)CC31CCN(Cc2ccccn2)CC1
AC50 [12]: 1.69 µM (active) | AC50 [13]: 3.18 µM (active) | AC50 [14]: 2.05 µM (active) | AC50 [15]: 2.11 µM (active)

CCNCCNc1ccc([N+](=O)[O-])c2cccnc12
AC50 [16]: 29.7 µM (active) | AC50 [17]: 13.6 µM (active)

CCc1cc2c(N3CCCCC3)ncnc2s1
CC50 [5]: > 40 µM (active)

C(=N\Nc1nc2ccccc2s1)/c1ccc2c(c1)OCO2
IC50 [6]: > 67.5 µM (inactive) | EC50 [7]: > 67.5 µM (inactive)

CC(C)CC#Cc1ccc2c(c1)O[C@H](CN(C)Cc1ccc(C(=O)O)cc1)[C@@H](C)CN([C@H](C)CO)S2(=O)=O
AC50 (Paired box protein Pax-8): 19.3 µM (active) | AC50 [18]: 57.2 µM (active) | AC50 [19]: 48 µM (active)

O=C(O)CCc1nn2c3ccccc3nc2n(CCN2CCCCC2)c1=O
EC50 (Kallikrein-7): 34.8 µM (inactive)

CC1CC(C)CN(C(=O)c2cc3c(=O)n4ccccc4nc3s2)C1 (centres undefined)
EC50 (Kallikrein-7): > 69.5 µM (inactive)

COc1ccc(C#Cc2ccc3c(c2)[C@H]2[C@H](CCN2C(=O)C2CCCC2)[C@@H](CO)N3)cc1
AC50 [12]: 1.99 µM (active) | AC50 [13]: 2.04 µM (active) | AC50 [14]: 1.67 µM (active) | AC50 [15]: 2.2 µM (active)

Cc1cccc(N2CCN(C(=O)C3CCN(c4ncnc5c4nc4n5CCCCC4)CC3)CC2)c1C
AC50 [8]: 35 µM (active) | AC50 [20]: 34.2 µM (active) | AC50 [9]: 31.3 µM (active) | AC50 [10]: 35.8 µM (active) | AC50 [11]: 27.1 µM (active)

C[C@@H]1CN([C@H](C)CO)C(=O)c2cc(NS(=O)(=O)c3ccc(Cl)cc3)ccc2O[C@@H](C)CCCCO[C@@H]1CN(C)Cc1ccccc1
AC50 (Paired box protein Pax-8): 4.7 µM (active) | AC50 [19]: 43 µM (active)

COC(=O)c1cc(-c2ccc(OC)cc2)nc2nc(SC)[nH]c(=O)c12
EC50 (Kallikrein-7): 48 µM (inactive)

Oc1ccc2ccccc2c1/C=N\C1CCCCC1
IC50 [21]: 23.3 µM (active)

COc1c(N2CCN(C(=S)Nc3ccccc3F)C(C)C2)c(F)cc2c(=O)c(C(=O)O)cn(C3CC3)c12 (centres undefined)
EC50 (Kallikrein-7): > 69.5 µM (inactive)

COC(=O)C1=C(N)Oc2cc(C)n(Cc3cccnc3)c(=O)c2C1c1cccc(OC)c1OC (centres undefined)
CC50 [5]: > 40 µM (active)
